Key:
Format in all cases: in vivo
Kochia (Kochia scoparia) [1] = test: Test A preemergence; conditions: Bassia scoparia, pre-emergence, 240 h
Summary of the method: (§1)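 Compounds were formulated in a non-phytotoxic solvent mixture with surfactant and applied as a preemergence directed soil spray after seeding, or sprayed postemergence over plants 2 to 10 cm tall at the one- to two-leaf stage. Evaluation after about 10 d compared treated with untreated controls, using a scale from 0 (no effect) to 100 (complete control).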

[2] = tested on: barnyardgrass (Echinochloa crus-galli); test: Test A preemergence; conditions: Echinochloa crus-galli, pre-emergence, 240 h
Summary of the method: as §1

[3] = tested on: giant foxtail (Setaria faberii); test: Test A preemergence; conditions: Setaria faberi, pre-emergence, 240 h
Summary of the method: as §1

[4] = tested on: pigweed (Amaranthus retroflexus); test: Test A preemergence; conditions: Amaranthus retroflexus, pre-emergence, 240 h
[5] = tested on: ragweed (common ragweed, Ambrosia elatior); test: Test A preemergence; conditions: Ambrosia artemisiifolia, pre-emergence, 240 h
Summary of the method: as §1

[6] = tested on: ryegrass, Italian (Italian ryegrass, Lolium multiflorum); test: Test A preemergence; conditions: Lolium multiflorum, pre-emergence, 240 h
Summary of the method: as §1

[7] = tested on: Galium (catchweed bedstraw, Galium aparine); test: Test A postemergence; conditions: Galium, post-emergence, 240 h, read-out: Plant response rating, Galium
Summary of the method: as §1

Kochia (Kochia scoparia) [8] = test: Test A postemergence; conditions: Bassia scoparia, post-emergence, 240 h, read-out: Plant response rating, Kochia
Summary of the method: as §1

[9] = tested on: barnyardgrass (Echinochloa crus-galli); test: Test A postemergence; conditions: Echinochloa crus-galli, post-emergence, 240 h, read-out: Plant response rating, Barnyardgrass
Summary of the method: as §1

[10] = tested on: blackgrass (Alopecurus myosuroides); test: Test A postemergence; conditions: Alopecurus myosuroides, post-emergence, 240 h, read-out: Plant response rating, Blackgrass
Summary of the method: as §1

corn (Zea mays) = test: Test A postemergence; conditions: Zea mays, post-emergence, 240 h
Summary of the method: as §1

[11] = tested on: giant foxtail (Setaria faberii); test: Test A postemergence; conditions: Setaria faberi, post-emergence, 240 h, read-out: Plant response rating, Foxtail, Giant
Summary of the method: as §1

[12] = tested on: pigweed (Amaranthus retroflexus); test: Test A postemergence; conditions: Amaranthus retroflexus, post-emergence, 240 h, read-out: Plant response rating, Pigweed
Summary of the method: as §1

[13] = tested on: ragweed (common ragweed, Ambrosia elatior); test: Test A postemergence; conditions: Ambrosia artemisiifolia, post-emergence, 240 h, read-out: Plant response rating, Ragweed
Summary of the method: as §1

[14] = tested on: ryegrass, Italian (Italian ryegrass, Lolium multiflorum); test: Test A postemergence; conditions: Lolium multiflorum, post-emergence, 240 h, read-out: Plant response rating, Ryegrass, Italian
Summary of the method: as §1

[15] = tested on: wheat (Triticum aestivum); test: Test A postemergence; conditions: Triticum aestivum, post-emergence, 240 h, read-out: Plant response rating, Wheat
Summary of the method: as §1

[16] = tested on: barnyardgrass (Echinochloa crus-galli); test: Test B flooded paddy test; conditions: Echinochloa crus-galli, 250 g ai/ha, Flood; 0 to 100 scale where 0 is no effect and 100 is complete control; read-out: Barnyardgrass plant response rating
Summary of the method: (§2)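 Greenhouse paddy pots with 2-leaf stage plants received compound by direct addition to floodwater 3 cm deep, kept at that level. Scored visually at 13–15 d versus controls (0 no effect; 100 complete control).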

[17] = tested on: ducksalad (Heteranthera limosa); test: Test B flooded paddy test; conditions: Heteranthera limosa, 250 g ai/ha, Flood; 0 to 100 scale where 0 is no effect and 100 is complete control; read-out: Ducksalad plant response rating
Summary of the method: as §2

rice (Oryra sativa) = test: Test B flooded paddy test; conditions: Oryza sativa, 250 g ai/ha, Flood; 0 to 100 scale where 0 is no effect and 100 is complete control; read-out: Rice plant response rating
Summary of the method: as §2

[18] = tested on: sedge, umbrella (small-flower umbrella sedge, Cyperus difformis); test: Test B flooded paddy test; conditions: Cyperus difformis, 250 g ai/ha, Flood; 0 to 100 scale where 0 is no effect and 100 is complete control; read-out: Sedge, Umbrella plant response rating
Summary of the method: as §2

[19] = 125 g ai/ha, Postemergence, visual injury after approximately 10 d, 0 to 100 scale where 0 is no effect and 100 is complete control
[20] = 500 g ai/ha, postemergence, visual injury, 0 to 100 scale (0 no effect, 100 complete control), approx. 10 d

CSc1ccccc1NC(=O)[C@H]1C(=O)N(C)CC[C@@H]1c1ccc(OC(F)(F)F)cc1 [Compound 1001]
0%: pest or weed control at 125 g/ha (Kochia (Kochia scoparia) [1]; 125 g ai/ha, Preemergence, visual injury rating after approximately 10 d, read-out: Kochia plant response rating (0 to 100 scale, 0 is no effect, 100 is complete control)) | pest or weed control at 500 g/ha (Kochia (Kochia scoparia) [1]; 500 g ai/ha, preemergence, visual injury rating about 10 d after treatment, 0 to 100 scale (0 no effect, 100 complete control), read-out: Kochia plant response rating) | pest or weed control at 125 g/ha ([2]; 125 g ai/ha, Preemergence, visual injury rating after approximately 10 d, read-out: Barnyardgrass plant response rating (0 to 100 scale, 0 is no effect, 100 is complete control)) | pest or weed control at 500 g/ha ([2]; 500 g ai/ha, preemergence, visual injury rating about 10 d after treatment, 0 to 100 scale (0 no effect, 100 complete control), read-out: Barnyardgrass plant response rating) | pest or weed control at 125 g/ha ([3]; 125 g ai/ha, Preemergence, visual injury rating after approximately 10 d, read-out: Foxtail, Giant plant response rating (0 to 100 scale, 0 is no effect, 100 is complete control)) | pest or weed control at 500 g/ha ([3]; 500 g ai/ha, preemergence, visual injury rating about 10 d after treatment, 0 to 100 scale (0 no effect, 100 complete control), read-out: Foxtail, Giant plant response rating) | pest or weed control at 125 g/ha ([4]; 125 g ai/ha, Preemergence, visual injury rating after approximately 10 d, read-out: Pigweed plant response rating (0 to 100 scale, 0 is no effect, 100 is complete control)) | pest or weed control at 500 g/ha ([4]; 500 g ai/ha, preemergence, visual injury rating about 10 d after treatment, 0 to 100 scale (0 no effect, 100 complete control), read-out: Pigweed plant response rating) | pest or weed control at 125 g/ha ([5]; 125 g ai/ha, Preemergence, visual injury rating after approximately 10 d, read-out: Ragweed plant response rating (0 to 100 scale, 0 is no effect, 100 is complete control)) | pest or weed control at 500 g/ha ([5]; 500 g ai/ha, preemergence, visual injury rating about 10 d after treatment, 0 to 100 scale (0 no effect, 100 complete control), read-out: Ragweed plant response rating) | pest or weed control at 125 g/ha ([6]; 125 g ai/ha, Preemergence, visual injury rating after approximately 10 d, read-out: Ryegrass, Italian plant response rating (0 to 100 scale, 0 is no effect, 100 is complete control)) | pest or weed control at 500 g/ha ([6]; 500 g ai/ha, preemergence, visual injury rating about 10 d after treatment, 0 to 100 scale (0 no effect, 100 complete control), read-out: Ryegrass, Italian plant response rating) | pest or weed control at 125 g/ha [7, 19] | pest or weed control at 500 g/ha [7, 20] | pest or weed control at 125 g/ha (Kochia (Kochia scoparia) [8]; [19]) | pest or weed control at 500 g/ha (Kochia (Kochia scoparia) [8]; [20]) | pest or weed control at 125 g/ha [9, 19] | pest or weed control at 500 g/ha [9, 20] | pest or weed control at 125 g/ha [10, 19] | pest or weed control at 500 g/ha [10, 20] | Corn plant response rating (crop injury, 0 = no effect, 100 = complete kill) at 125 g/ha (corn (Zea mays); [19]) | Corn plant response rating (crop injury, 0 = no effect, 100 = complete kill) at 500 g/ha (corn (Zea mays); [20]) | pest or weed control at 125 g/ha [11, 19] | pest or weed control at 500 g/ha [11, 20] | pest or weed control at 125 g/ha [12, 19] | pest or weed control at 500 g/ha [12, 20] | pest or weed control at 125 g/ha [13, 19] | pest or weed control at 500 g/ha [13, 20] | pest or weed control at 125 g/ha [14, 19] | pest or weed control at 500 g/ha [14, 20] | plant injury at 125 g/ha [15, 19] | plant injury at 500 g/ha [15, 20] | pest or weed control at 250 g/ha [16] | pest or weed control at 250 g/ha [17] | pest or weed control at 250 g/ha (rice (Oryra sativa)) | pest or weed control at 250 g/ha [18]

Reference: patent US12077503B2, “Substituted cyclic amides and their use as herbicides” (FMC CORPORATION, priority 2015, dated 2024)
